In publication PMC5844530, “Fosmetpantotenate (RE-024), a phosphopantothenate replacement therapy for pantothenate kinase-associated neurodegeneration: Mechanism of action and efficacy in nonclinical models” (PLoS ONE, 2018):
Several values for one entry are separate records, joined by “and”; a condition that tells them apart may be missing. Identical values can stand only once. Like-named read-outs stand apart in the source and are kept apart here.

Columns and labels:
[1] = Metabolic stability in rat whole blood; type: in vitro ADME; details: for Percentage Remaining: rat whole blood, replicates 1 and 2, listed as Fosmetpantotenate Total
Method: (§1) Metabolic stability in blood and liver microsomes: Fosmetpantotenate or its individual diastereomers (5 μM, n = 2, 37°C) were incubated in mouse, rat, cynomolgus monkey, and human whole blood. Samples (50 μL) were taken at 0, 5, 15, 30, and 60 min. Incubations of fosmetpantotenate or its individual diastereomers (1 μM, n = 2, 37°C) in pooled liver microsomes (0.25 mg protein/mL in 0.1 M phosphate buffer pH 7.4) were initiated with the addition of nicotinamide adenine dinucleotide phosphate (NADPH; 1 mM). Aliquots (100 μL) were obtained at 0, 5, 10, 20, and 40 min and added to 150 μL of 0.1% formic acid in acetonitrile-containing carbamazepine (0.5 μM) as an analytical internal standard, centrifuged, and the supernatants analyzed by LC-MS/MS.
(§2) Bioanalysis for determinations of analyte stability: Samples were analyzed using a benchtop tandem quadrupole detector (TQD) mass spectrometer (Waters Ltd, Centennial Park, Hertfordshire). […] Suitable retention and peak shape with separation of the 2 diastereomers were obtained. The chromatography column was a Phenomenex-Kinetex XB C18 (2.10 x 50 mm; 2.6 μm), with a 0.7 mL/min flow rate and a 2 μL injection volume. […] The gradient was initiated with 20% B and increased linearly, reaching 40% B at 0.6 min, followed by 50% B at 0.8 min and by 95% B at 0.9 min. Conditions were kept isocratic through 1.2 min, returned to starting conditions (20% B) at 1.25 min, and maintained at 20% B through 1.5 min before the next injection. Since fosmetpantotenate is a mixture of diastereomers which are resolved chromatographically, the fosmetpantotenate MRM area corresponds to the sum of the MRM areas of the individual diastereomers.
(§3) The percent of compound remaining was determined from the MRM area response in each sample relative to that in the T = 0 samples (normalized for internal standard). Natural log plots of the percent compound remaining over time were used to determine the t½ of compound disappearance using the relationship t½ = -0.693/λ, where λ is the slope of the natural logarithm of the percent compound remaining vs time curve.

[2] = Microdialysis (striatal dialysate and blood) in cynomolgus monkeys; type: in vivo, cynomolgus monkey; details: for Cmax: po, read-out: Cmax; for AUC: read-out: AUC
Method: Monkeys were sedated by intramuscular (i.m.) ketamine administration and cannulated for intravenous (i.v.) administration of propofol infusion (initiated 15–30 min after ketamine administration). Subsequently, the animals were placed in an magnetic resonance imaging (MRI)-compatible stereotaxic frame (Kopf Model 1430), and T1 and T2 weighted scans (for up to 1 h) were carried out with a 7 cm loop-coil in a 3 Tesla Siemens Magnetom TIM Trio (Germany). To derive the coordinates, Digital Imaging and Communications in Medicine (DICOM) files were transformed into Neuroimaging Informatics Technology Initiative (NIFTI) format. NIFTI-compatible images were loaded into 3D viewer software (MRIcro version 1.40 build 1), and the stereotaxic zero in the MRI image was determined using the coordinates of the earbar-tips. Coordinates for placement of the guide cannulas were calculated for every individual animal by use of MRI images and a primate brain map.
On a separate day, microdialysis guide cannulas were placed bilaterally in the head of the caudate nucleus using the same MRI compatible stereotaxic frame (Kopf Model 1430), under isoflurane anesthesia. Prior to surgery, animals were administered ketamine (i.m.), and subsequently anesthetized with isoflurane (0.8%-2% inhalation) while artificially ventilated with O2/N2O (40/60) at 60 to 80 mL tidal volume via an intratracheal tube. During surgery, subcutaneous or i.v. fluids were provided. Animals were allowed to recover from the anesthesia in a warmed environment, single housed, and given at a minimum a 14-day post-surgery recovery time. The following medications were administered to reduce pain and inflammation, as well as reduce the chance of post-operative infection: meloxicam (Metacam 5 mg/mL, 0.2 mg/kg, buprenorphine (Temgesic, 0.3 mg/mL, 0.0038 mg/kg), enrofloxacine (25 mg/mL, 5 mg/kg), and amoxicillin (150 mg/mL, 15 mg/kg).
Samples were stored in -80°C.
From monkeys only, whole blood samples (0.5 mL) were collected from the femoral vein at -1, 0, 1, 2, and 3 h relative to dosing and transferred immediately to chilled polypropylene 15 mL vials containing 2500 μL of 0.15% formic acid in acetonitrile, mixed, and placed on dry ice. After the collections samples were stored at -80°C.
Sample preparation for monkey dialysate and blood samples: Concentrations of fosmetpantotenate (D1 and D2), PA, and PPA in monkey dialysate and blood samples were determined by Brains On-Line LLC. […] For dialysate quantitation, standards and QC samples were prepared in control dialysate (0.2% BSA in aCSF: water: 0.04% ascorbic acid in aqueous 0.02 M formic acid [4.5:24:6 v/v/v]). Standards, QC samples, and dialysate (10 μL) were mixed with 6 μL 20 mM formic acid and 0.01% ascorbic acid in water containing internal standard (10 ng/mL of ^15N/^13C3-PA) and analyzed by LC-MS/MS. Blood standards and QC samples were prepared in supernatant from control monkey blood which had been treated with 5 volumes of 0.15% formic acid in acetonitrile. Endogenous levels >LLOQ were detected for PA in control quenched blood only and quantitated at 56.56 nM based on calibration standard prepared in solvent. To compensate for endogenous PA in the calibration curve control blood, PA standard curve concentrations were spiked plus endogenous levels. Sample work-up of blood involved diluting 10 μL supernatant from study blood samples, standards, and QC samples with 90 μL of 20 mM formic acid and 0.01% ascorbic acid in water, then treating with 4 μL 20 mM formic acid and 0.01% ascorbic acid in water containing internal standard (10 ng/mL of ^15N/^13C3-PA) and analyzing by LC-MS/MS.

[3] = Metabolic stability in mouse whole blood; type: in vitro ADME; details: for Percentage Remaining: mouse whole blood, replicates 1 and 2, listed as Fosmetpantotenate Total
Method: as §1, §2, §3

Q: Which results are given for `COC(=O)CCNC(=O)[C@H](O)C(C)(C)COP(=O)(N[C@@H](C)C(=O)OC)Oc1ccccc1` (mixture of isomers) [Fosmetpantotenate]?
A: half-life at 5 μM ([1]; rat blood, 5 μM, 37°C, 60 min): < 5 min; Percentage Remaining ([1]; 5 min): 6% and 1%; Percentage Remaining ([1]; 15 min): 0% and 8%; Percentage Remaining ([1]; 60 min): 0%; fold increase in dialysate AUC from 100 to 300 mg/kg ([2]; PA basal adjusted, analyte = label): 5.0 fold; fold increase in blood estimated exposure from 100 to 300 mg/kg ([2]; blood): ~ 3.6 fold; concentration at 0.5 h ([2]; cynomolgus monkey, in vivo, 300 mg/kg, individual Cyno, Fosmetpantotentate 300 mg/kg PO, corrected for dilution, post-dose, time 0.5 hr, read-out: Fosmetpantotenate Dialysate Concentration): 2060 nM; concentration at 1 h ([2]; cynomolgus monkey, in vivo, 300 mg/kg, individual Cyno, Fosmetpantotentate 300 mg/kg PO, corrected for dilution, post-dose, time 1 hr, read-out: Fosmetpantotenate Dialysate Concentration): 393 nM; concentration at 1.5 h ([2]; cynomolgus monkey, in vivo, 300 mg/kg, individual Cyno, Fosmetpantotentate 300 mg/kg PO, corrected for dilution, post-dose, time 1.5 hr, read-out: Fosmetpantotenate Dialysate Concentration): 76 nM; concentration at 2 h ([2]; cynomolgus monkey, in vivo, 300 mg/kg, individual Cyno, Fosmetpantotentate 300 mg/kg PO, corrected for dilution, post-dose, time 2 hr, read-out: Fosmetpantotenate Dialysate Concentration): 20 nM; concentration at 2.5 h ([2]; cynomolgus monkey, in vivo, 300 mg/kg, individual Cyno, Fosmetpantotentate 300 mg/kg PO, corrected for dilution, post-dose, time 2.5 hr, read-out: Fosmetpantotenate Dialysate Concentration): 7.12 nM; concentration at 1 h ([2]; cynomolgus monkey, in vivo, 300 mg/kg, individual Cyno, Fosmetpantotentate 300 mg/kg PO, post-dose, time 1 hr, read-out: Fosmetpantotenate Blood Concentration): 7390 nM; concentration at 3 h ([2]; cynomolgus monkey, in vivo, 300 mg/kg, individual Cyno, Fosmetpantotentate 300 mg/kg PO, post-dose, time 3 hr, read-out: Fosmetpantotenate Blood Concentration): 227 nM; Cmax ([2]; cynomolgus monkey, in vivo, 100 mg/kg, blood, fosmetpantotenate 100 mg/kg PO, analyte = label): 1650 ± 1930 nM; Cmax ([2]; cynomolgus monkey, in vivo, 100 mg/kg, dialysate, fosmetpantotenate 100 mg/kg PO): 221 ± 253 nM; Cmax ([2]; cynomolgus monkey, in vivo, 300 mg/kg, dialysate, fosmetpantotenate 300 mg/kg PO, mean (individual values)): 1560 nM; AUC ([2]; cynomolgus monkey, in vivo, dialysate, fosmetpantotenate 100 mg/kg PO): 0.209 ± 0.234 µM·h; AUC ([2]; cynomolgus monkey, in vivo, dialysate, fosmetpantotenate 300 mg/kg PO, mean (individual values)): 1.03 µM·h; concentration at 3 h ([2]; cynomolgus monkey, in vivo, individual Cyno, Fosmetpantotentate 300 mg/kg PO, corrected for dilution, post-dose, time 3 hr, LLOQ D1=0.2 nM, D2=0.3 nM, read-out: Fosmetpantotenate Dialysate Concentration): 23.7 nM; Cmax ([2]; cynomolgus, cynomolgus monkey, in vivo, 300 mg/kg, blood, fosmetpantotenate 300 mg/kg PO, mean (individual values), analyte = label): 6040 nM; AUC ([2]; cynomolgus, cynomolgus monkey, in vivo, blood, fosmetpantotenate 100 mg/kg PO, analyte = label): 1.87 ± 1.96 µM·h; AUC ([2]; cynomolgus, cynomolgus monkey, in vivo, blood, fosmetpantotenate 300 mg/kg PO, mean (individual values), analyte = label): 6.81 µM·h; concentration at 3 h ([2]; individual Cyno, Fosmetpantotentate 300 mg/kg PO, corrected for dilution, post-dose, time 0.5 hr, read-out: Fosmetpantotenate Dialysate Concentration): 1059.88 nM; concentration at 3 h ([2]; individual Cyno, Fosmetpantotentate 300 mg/kg PO, corrected for dilution, post-dose, time 1 hr, read-out: Fosmetpantotenate Dialysate Concentration): 429.27 nM; concentration at 3 h ([2]; individual Cyno, Fosmetpantotentate 300 mg/kg PO, corrected for dilution, post-dose, time 1.5 hr, read-out: Fosmetpantotenate Dialysate Concentration): 72.40 nM; concentration at 3 h ([2]; individual Cyno, Fosmetpantotentate 300 mg/kg PO, corrected for dilution, post-dose, time 2 hr, read-out: Fosmetpantotenate Dialysate Concentration): 19.06 nM; concentration at 3 h ([2]; individual Cyno, Fosmetpantotentate 300 mg/kg PO, corrected for dilution, post-dose, time 2.5 hr, read-out: Fosmetpantotenate Dialysate Concentration): 4.54 nM; Fosmetpantotenate Dialysate Concentration ([2]; individual Cyno, Fosmetpantotentate 300 mg/kg PO, corrected for dilution, post-dose, time 3 hr, LLOQ D1=0.2 nM, D2=0.3 nM): BLQ; Fosmetpantotenate Dialysate Concentration ([2]; individual Cyno, Fosmetpantotentate 300 mg/kg PO, corrected for dilution, pre-dose, time 0 hr, LLOQ D1=0.2 nM, D2=0.3 nM): <LLOQ; Fosmetpantotenate Dialysate Concentration ([2]; individual Cyno, Fosmetpantotentate 300 mg/kg PO, corrected for dilution, pre-dose, time -0.5 hr, LLOQ D1=0.2 nM, D2=0.3 nM): <LLOQ; Fosmetpantotenate Dialysate Concentration ([2]; individual Cyno, Fosmetpantotentate 300 mg/kg PO, corrected for dilution, pre-dose, time -1 hr, LLOQ D1=0.2 nM, D2=0.3 nM): <LLOQ; concentration at 1 h ([2]; individual Cyno, Fosmetpantotentate 300 mg/kg PO, post-dose, time 1 hr, read-out: Fosmetpantotenate Blood Concentration): 4687.62 nM; concentration at 1 h ([2]; individual Cyno, Fosmetpantotentate 300 mg/kg PO, post-dose, time 2 hr, read-out: Fosmetpantotenate Blood Concentration): 1026.66 nM and 312.23 nM; concentration at 1 h ([2]; individual Cyno, Fosmetpantotentate 300 mg/kg PO, post-dose, time 3 hr, read-out: Fosmetpantotenate Blood Concentration): 183.68 nM; Fosmetpantotenate Blood Concentration ([2]; individual Cyno, Fosmetpantotentate 300 mg/kg PO, pre-dose, time 0 hr relative to dose): <LLOQ; Fosmetpantotenate Blood Concentration ([2]; individual Cyno, Fosmetpantotentate 300 mg/kg PO, pre-dose, time -1 hr relative to dose): <LLOQ; half-life at 5 μM ([3]; mouse blood, 5 μM, 37°C, 60 min): < 5 min; Percentage Remaining ([3]; 5 min): 1%; Percentage Remaining ([3]; 15 min): 1%
